The source of these data is patent US8912176B2 (Evotec AG, priority 2009, dated 2014).

SMILES strings stand for the structures. Bounds are passed on as bounds.

human H3 receptor, sequence (Q9Y5N1 whole entry): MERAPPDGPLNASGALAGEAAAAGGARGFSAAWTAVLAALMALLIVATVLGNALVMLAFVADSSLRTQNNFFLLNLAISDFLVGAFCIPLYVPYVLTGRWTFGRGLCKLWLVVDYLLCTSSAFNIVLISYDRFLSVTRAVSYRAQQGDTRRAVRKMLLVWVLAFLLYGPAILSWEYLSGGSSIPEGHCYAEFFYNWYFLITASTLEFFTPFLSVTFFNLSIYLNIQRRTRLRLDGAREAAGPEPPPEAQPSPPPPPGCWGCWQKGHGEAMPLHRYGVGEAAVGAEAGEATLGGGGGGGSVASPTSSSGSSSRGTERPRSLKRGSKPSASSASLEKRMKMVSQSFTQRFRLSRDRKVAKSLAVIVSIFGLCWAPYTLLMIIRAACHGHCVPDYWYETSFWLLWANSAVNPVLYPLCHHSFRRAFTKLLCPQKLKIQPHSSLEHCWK

The assay has as its target human H3 receptor (Homo sapiens, UniProt Q9Y5N1). The assay is described as follows: cAMP quantification assay for human H3 receptor (DiscoveRx cAMP XS+).
In general, IC50 refers to the point on the concentration scale where inhibition reaches its midpoint. Low readings indicate greater potency in that assay, high ones weaker potency in that assay. `Cc1ccc(C(=O)N2CC(C(=O)N3CCCN(C4CCC4)CC3)C2)cn1` [Example 10, 1-cyclobutyl-4-({1-[(6-methylpyridin-3-yl)carbonyl]azetidin-3-yl}carbonyl)-1,4-diazepane] returned an IC50 of less than 50 nM.

Turning to `COc1ccc(S(=O)(=O)N2CC(C(=O)N3CCCN(C4CCC4)CC3)C2)cc1` [Example 23, 1-cyclobutyl-4-({1-[(4-methoxyphenyl)sulfonyl]azetidin-3-yl}carbonyl)-1,4-diazepane], the half-maximal inhibitory concentration (IC50) lay within 50 to 100 nM. Molecule `O=C(c1ccc(-n2ccnc2)cc1)N1CC(C(=O)N2CCCN(C3CCC3)CC2)C1` [Example 72, 1-cyclobutyl-4-[(1-{[4-(1H-imidazol-1-yl)phenyl]carbonyl}azetidin-3-yl)carbonyl]-1,4-diazepane] displayed an IC50 of less than 50 nM.

On to `COC1CCC(C(=O)N2CC(C(=O)N3CCCN(C4CCC4)CC3)C2)CC1` (mixture of isomers) [Example 28, 1-cyclobutyl-4-({1-[(4-methoxycyclohexyl)carbonyl]azetidin-3-yl}carbonyl)-1,4-diazepane], for which the IC50 is less than 50 nM.

In the case of `O=C(C1CN(C(=O)C2CCC(F)(F)CC2)C1)N1CCCN(C2CCC2)CC1` [Example 29, 1-cyclobutyl-4-({1-[(4,4-difluorocyclohexyl)carbonyl]azetidin-3-yl}carbonyl)-1,4-diazepane], the IC50 is less than 50 nM.

The molecule `N#Cc1ccc(S(=O)(=O)N2CC(C(=O)N3CCCN(C4CCC4)CC3)C2)cc1` [Example 27, 4-({3-[(4-cyclobutyl-1,4-diazepan-1-yl)carbonyl]azetidin-1-yl}sulfonyl)benzonitrile] yielded an IC50 of less than 50 nM.

Molecule `Cc1nc(-c2ccc(C(=O)N3CC(C(=O)N4CCCN(C5CCC5)CC4)C3)cc2)no1` [Example 37, 1-cyclobutyl-4-[(1-{[4-(5-methyl-1,2,4-oxadiazol-3-yl)phenyl]carbonyl}azetidin-3-yl)carbonyl]-1,4-diazepane] displayed an IC50 of less than 50 nM. For `N#Cc1ccc(CC(=O)N2CC(C(=O)N3CCCN(C4CCC4)CC3)C2)cc1` [Example 34, 4-(2-{3-[(4-cyclobutyl-1,4-diazepan-1-yl)carbonyl]azetidin-1-yl}-2-oxoethyl)benzonitrile] the value was less than 50 nM; for `Cc1ccc(C(=O)N2CC(C(=O)N3CCCN(C(C)C)CC3)C2)cn1` [Example 79, 1-(1-methylethyl)-4-({1-[(6-methylpyridin-3-yl)carbonyl]azetidin-3-yl}carbonyl)-1,4-diazepane], 100 to 5000 nM. `O=C(OCc1ccccc1)N1CC(C(=O)N2CCCN(C3CCC3)CC2)C1` [Example 1, benzyl 3-[(4-cyclobutyl-1,4-diazepan-1-yl)carbonyl]azetidine-1-carboxylate]: the IC50 is less than 50 nM. As for `O=C(c1ccc(-c2nccs2)cc1)N1CC(C(=O)N2CCCN(C3CCC3)CC2)C1` [Example 35, 1-cyclobutyl-4-[(1-{[4-(1,3-thiazol-2-yl)phenyl]carbonyl}azetidin-3-yl)carbonyl]-1,4-diazepane], the IC50 is less than 50 nM.

For `O=C(c1ccc(-n2cccn2)cc1)N1CC(C(=O)N2CCCN(C3CCC3)CC2)C1` [Example 40, 1-cyclobutyl-4-[(1-{[4-(1H-pyrazol-1-yl)phenyl]carbonyl}azetidin-3-yl)carbonyl]-1,4-diazepane], the IC50 was less than 50 nM. `CN(C(=O)N1CC(C(=O)N2CCCN(C3CCC3)CC2)C1)c1ccc(C#N)cc1` [Example 63] registered an IC50 of less than 50 nM.

In turn, `O=C(C1CN(S(=O)(=O)C2CCCCC2)C1)N1CCCN(C2CCC2)CC1` [Example 24, 1-cyclobutyl-4-{[1-(cyclohexylsulfonyl)azetidin-3-yl]carbonyl}-1,4-diazepane] gave an IC50 of less than 50 nM.

The molecule `CN(CC1CCCCC1)C(=O)N1CC(C(=O)N2CCCN(C3CCC3)CC2)C1` [Example 60, 3-[(4-cyclobutyl-1,4-diazepan-1-yl)carbonyl]-N-(cyclohexylmethyl)-N-methylazetidine-1-carboxamide] displayed an IC50 of less than 50 nM.

On to `Cc1cc(C(=O)N2CC(C(=O)N3CCCN(C4CCC4)CC3)C2)ccn1` [Example 75, 1-cyclobutyl-4-({1-[(2-methylpyridin-4-yl)carbonyl]azetidin-3-yl}carbonyl)-1,4-diazepane], for which the IC50 was less than 50 nM. Regarding `Cc1ccc(C(=O)N2CC(C(=O)N3CCCN(CC(C)C)CC3)C2)cn1` [Example 84, 1-(2-methylpropyl)-4-({1-[(6-methylpyridin-3-yl)carbonyl]azetidin-3-yl}carbonyl)-1,4-diazepane], the IC50 fell in the range of 100 to 5000 nM.

With `CC1(C)COC(c2ccc(C(=O)N3CC(C(=O)N4CCCN(C5CCC5)CC4)C3)cc2)=N1` [Example 42, 1-cyclobutyl-4-[(1-{[4-(4,4-dimethyl-4,5-dihydro-1,3-oxazol-2-yl)phenyl]carbonyl}azetidin-3-yl)carbonyl]-1,4-diazepane], the IC50 was less than 50 nM. The molecule `CCC(=O)N1CC(C(=O)N2CCCN(C3CCC3)CC2)C1` [Example 71, 1-cyclobutyl-4-[(1-propanoylazetidin-3-yl)carbonyl]-1,4-diazepane] returned an IC50 of less than 50 nM.

As to `Cc1nc(-c2ccc(C(=O)N3CC(C(=O)N4CCCN(C5CCC5)CC4)C3)cc2)cs1` [Example 36, 1-cyclobutyl-4-[(1-{[4-(2-methyl-1,3-thiazol-4-yl)phenyl]carbonyl}azetidin-3-yl)carbonyl]-1,4-diazepane], the IC50 is less than 50 nM. Next, `N#Cc1ccc(C(=O)N2CC(C(=O)N3CCCN(C4CCC4)CC3)C2)cc1` [Example 6, 4-({3-[(4-cyclobutyl-1,4-diazepan-1-yl)carbonyl]azetidin-1-yl}carbonyl)benzonitrile]: less than 50 nM; `O=C(NCc1ccc(F)cc1)N1CC(C(=O)N2CCCN(C3CCC3)CC2)C1` [Example 58, 3-[(4-cyclobutyl-1,4-diazepan-1-yl)carbonyl]-N-(4-fluorobenzyl)azetidine-1-carboxamide]: less than 50 nM. `CN(Cc1ccc(F)cc1)C(=O)N1CC(C(=O)N2CCCN(C3CCC3)CC2)C1` [Example 62, 3-[(4-cyclobutyl-1,4-diazepan-1-yl)carbonyl]-N-(4-fluorobenzyl)-N-methylazetidine-1-carboxamide] showed an IC50 of less than 50 nM.

`O=C(CN1CCC(F)(F)C1)N1CC(C(=O)N2CCCN(C3CCC3)CC2)C1` [Example 19, 1-cyclobutyl-4-({1-[(3,3-difluoropyrrolidin-1-yl)acetyl]azetidin-3-yl}carbonyl)-1,4-diazepane] showed an IC50 of less than 50 nM. `Cc1nc(-c2cccc(C(=O)N3CC(C(=O)N4CCCN(C5CCC5)CC4)C3)c2)cs1` [Example 46, 1-cyclobutyl-4-[(1-{[3-(2-methyl-1,3-thiazol-4-yl)phenyl]carbonyl}azetidin-3-yl)carbonyl]-1,4-diazepane] registered an IC50 of less than 50 nM. In turn, `O=C(c1ccc(Oc2ccccc2)cc1)N1CC(C(=O)N2CCCN(C3CCC3)CC2)C1` [Example 39, 1-cyclobutyl-4-({1-[(4-phenoxyphenyl)carbonyl]azetidin-3-yl}carbonyl)-1,4-diazepane] displayed an IC50 of less than 50 nM. Next, `O=C(C1CN(C(=O)N2CCc3ccccc3C2)C1)N1CCCN(C2CCC2)CC1` [Example 65, 2-({3-[(4-cyclobutyl-1,4-diazepan-1-yl)carbonyl]azetidin-1-yl}carbonyl)-1,2,3,4-tetrahydroisoquinoline]: less than 50 nM; `N#Cc1ccc(OC(=O)N2CC(C(=O)N3CCCN(C4CCC4)CC3)C2)cc1` [Example 69, 4-cyanophenyl 3-[(4-cyclobutyl-1,4-diazepan-1-yl)carbonyl]azetidine-1-carboxylate]: less than 50 nM; `O=C(C1CN(S(=O)(=O)CC2CCCC2)C1)N1CCCN(C2CCC2)CC1` [Example 25, 1-cyclobutyl-4-({1-[(cyclopentylmethyl)sulfonyl]azetidin-3-yl}carbonyl)-1,4-diazepane]: less than 50 nM. Next, `O=C(Cn1cccn1)N1CC(C(=O)N2CCCN(C3CCC3)CC2)C1` [Example 15, 1-cyclobutyl-4-{[1-(1H-pyrazol-1-ylacetyl)azetidin-3-yl]carbonyl}-1,4-diazepane]: less than 50 nM; `Cc1ncc(C(=O)N2CC(C(=O)N3CCCN(C4CCC4)CC3)C2)cn1` [Example 8, 1-cyclobutyl-4-({1-[(2-methylpyrimidin-5-yl)carbonyl]azetidin-3-yl}carbonyl)-1,4-diazepane]: less than 50 nM. `CC(C)c1ccc(C(=O)N2CC(C(=O)N3CCCN(C4CCC4)CC3)C2)cc1` [Example 38, 1-cyclobutyl-4-[(1-{[4-(1-methylethyl)phenyl]carbonyl}azetidin-3-yl)carbonyl]-1,4-diazepane] registered an IC50 of less than 50 nM. `O=C(c1ccc(Cn2cncn2)cc1)N1CC(C(=O)N2CCCN(C3CCC3)CC2)C1` [Example 74, 1-cyclobutyl-4-[(1-{[4-(1H-1,2,4-triazol-1-ylmethyl)phenyl]carbonyl}azetidin-3-yl)carbonyl]-1,4-diazepane]: the IC50 was less than 50 nM. `O=C(c1ccc(-n2cncn2)nc1)N1CC(C(=O)N2CCCN(C3CCC3)CC2)C1` [Example 13, 1-cyclobutyl-4-[(1-{[6-(1H-1,2,4-triazol-1-yl)pyridin-3-yl]carbonyl}azetidin-3-yl)carbonyl]-1,4-diazepane] came in with an IC50 of less than 50 nM. As to `O=C(C1CN(C(=O)C2CCOCC2)C1)N1CCCN(C2CCC2)CC1` [Example 5, 1-cyclobutyl-4-{[1-(tetrahydro-2H-pyran-4-ylcarbonyl)azetidin-3-yl]carbonyl}-1,4-diazepane], the IC50 is less than 50 nM. In the case of `N#Cc1ccc(OCC(=O)N2CC(C(=O)N3CCCN(C4CCC4)CC3)C2)cc1` [Example 22, 4-(2-{3-[(4-cyclobutyl-1,4-diazepan-1-yl)carbonyl]azetidin-1-yl}-2-oxoethoxy)benzonitrile], the IC50 was less than 50 nM. `Cc1ccc(C(=O)N2CC(C(=O)N3CCCN(C4CCCCC4)CC3)C2)cn1` [Example 82, 1-cyclohexyl-4-({1-[(6-methylpyridin-3-yl)carbonyl]azetidin-3-yl}carbonyl)-1,4-diazepane] showed an IC50 of less than 50 nM. For `Cc1ccc(CC(=O)N2CC(C(=O)N3CCCN(C4CCC4)CC3)C2)cn1` [Example 43, 1-cyclobutyl-4-({1-[(6-methylpyridin-3-yl)acetyl]azetidin-3-yl}carbonyl)-1,4-diazepane] the value was less than 50 nM.
